Assay: molar heat capacity at constant pressure
Conditions: 101.33 kPa, DSC

O=[N+]([O-])[O-].O=[N+]([O-])[O-].[Ca+2] [calcium nitrate]
Conditions	molar heat capacity at constant pressure [J/K/mol]
140.18 K, Crystal 2	107.65
141.18 K, Crystal 2	107.79
142.18 K, Crystal 2	107.93
143.18 K, Crystal 2	108.08
144.18 K, Crystal 2	108.26
145.18 K, Crystal 2	108.53
146.18 K, Crystal 2	108.77
147.18 K, Crystal 2	109.04
148.18 K, Crystal 2	109.41
149.18 K, Crystal 2	109.53
150.18 K, Crystal 2	109.66
151.18 K, Crystal 2	110.04
152.18 K, Crystal 2	110.2
153.18 K, Crystal 2	110.55
154.18 K, Crystal 2	110.68
155.18 K, Crystal 2	111.12
156.18 K, Crystal 2	111.45
157.18 K, Crystal 2	111.69
158.18 K, Crystal 2	111.99
159.18 K, Crystal 2	112.21
160.18 K, Crystal 2	112.56
161.18 K, Crystal 2	112.86
162.18 K, Crystal 2	113.24
163.18 K, Crystal 2	113.35
164.18 K, Crystal 2	113.45
165.18 K, Crystal 2	113.94
166.18 K, Crystal 2	114.12
167.18 K, Crystal 2	114.45
168.18 K, Crystal 2	114.73
169.18 K, Crystal 2	114.98
170.18 K, Crystal 2	115.36
171.18 K, Crystal 2	115.66
172.18 K, Crystal 2	116.1
173.18 K, Crystal 2	116.37
174.18 K, Crystal 2	116.66
175.18 K, Crystal 2	117.01
176.18 K, Crystal 2	117.33
177.18 K, Crystal 2	117.64
178.18 K, Crystal 2	117.92
179.18 K, Crystal 2	118.12
180.18 K, Crystal 2	118.62
181.18 K, Crystal 2	118.7
182.18 K, Crystal 2	119.16
183.18 K, Crystal 2	119.36
184.18 K, Crystal 2	119.66
185.18 K, Crystal 2	119.91
186.18 K, Crystal 2	120.23
187.18 K, Crystal 2	120.54
188.18 K, Crystal 2	120.8
189.18 K, Crystal 2	121.2
190.18 K, Crystal 2	121.32
191.18 K, Crystal 2	121.79
192.18 K, Crystal 2	122.02
193.18 K, Crystal 2	122.2
194.18 K, Crystal 2	122.58
195.18 K, Crystal 2	122.7
196.18 K, Crystal 2	123.1
197.18 K, Crystal 2	123.28
198.18 K, Crystal 2	123.48
199.18 K, Crystal 2	123.86
200.18 K, Crystal 2	123.94
201.18 K, Crystal 2	124.39
202.18 K, Crystal 2	124.62
203.18 K, Crystal 2	124.88
204.18 K, Crystal 2	125.24
205.18 K, Crystal 2	125.55
206.18 K, Crystal 2	125.8
207.18 K, Crystal 2	126.11
208.18 K, Crystal 2	126.43
209.18 K, Crystal 2	126.73
210.18 K, Crystal 2	126.95
211.18 K, Crystal 2	127.36
212.18 K, Crystal 2	127.6
213.18 K, Crystal 2	127.82
214.18 K, Crystal 2	128.19
215.18 K, Crystal 2	128.55
216.18 K, Crystal 2	128.82
217.18 K, Crystal 2	129.14
218.18 K, Crystal 2	129.41
219.18 K, Crystal 2	129.69
220.18 K, Crystal 2	129.91
221.18 K, Crystal 2	130.24
222.18 K, Crystal 2	130.55
223.18 K, Crystal 2	130.83
224.18 K, Crystal 2	131.03
225.18 K, Crystal 2	131.19
226.18 K, Crystal 2	131.52
227.18 K, Crystal 2	131.78
228.18 K, Crystal 2	132.06
229.18 K, Crystal 2	132.35
230.18 K, Crystal 2	132.6
231.18 K, Crystal 2	132.91
232.18 K, Crystal 2	133.16
233.18 K, Crystal 2	133.4
234.18 K, Crystal 2	133.66
235.18 K, Crystal 2	134.04
236.18 K, Crystal 2	134.28
237.18 K, Crystal 2	134.56
238.18 K, Crystal 2	134.67
239.18 K, Crystal 2	134.73
240.18 K, Crystal 2	134.88
241.18 K, Crystal 2	134.93
242.18 K, Crystal 2	135.27
243.18 K, Crystal 2	135.75
244.18 K, Crystal 2	136.33
245.18 K, Crystal 2	136.84
246.18 K, Crystal 2	137.21
247.18 K, Crystal 2	137.52
248.18 K, Crystal 2	137.79
249.18 K, Crystal 2	138.02
250.18 K, Crystal 2	138.35
251.18 K, Crystal 2	138.62
252.18 K, Crystal 2	138.99
253.18 K, Crystal 2	139.21
254.18 K, Crystal 2	139.61
255.18 K, Crystal 2	139.92
256.18 K, Crystal 2	140.17
257.18 K, Crystal 2	140.52
258.18 K, Crystal 2	140.74
259.18 K, Crystal 2	140.96
260.18 K, Crystal 2	141.24
261.18 K, Crystal 2	141.46
262.18 K, Crystal 2	141.71
263.18 K, Crystal 2	141.92
264.18 K, Crystal 2	142.15
265.18 K, Crystal 2	142.33
266.18 K, Crystal 2	142.65
267.18 K, Crystal 2	142.87
268.18 K, Crystal 2	143.14
269.18 K, Crystal 2	143.48
270.18 K, Crystal 2	143.75
271.18 K, Crystal 2	144.11
272.18 K, Crystal 2	144.39
273.18 K, Crystal 2	144.69
274.18 K, Crystal 2	145.05
275.18 K, Crystal 2	145.33
276.18 K, Crystal 2	145.65
277.18 K, Crystal 2	145.91
278.18 K, Crystal 2	146.15
279.18 K, Crystal 2	146.49
280.18 K, Crystal 2	146.74
281.18 K, Crystal 2	147.05
282.18 K, Crystal 2	147.32
283.18 K, Crystal 2	147.62
284.18 K, Crystal 2	148.05
285.18 K, Crystal 2	148.47
286.18 K, Crystal 2	149.01
287.18 K, Crystal 2	149.55
288.18 K, Crystal 2	150.15
289.18 K, Crystal 2	150.77
290.18 K, Crystal 1	151.37
291.18 K, Crystal 1	151.12
292.18 K, Crystal 1	150.21
293.18 K, Crystal 1	149.35
294.18 K, Crystal 1	148.69
295.18 K, Crystal 1	148.17
296.18 K, Crystal 1	147.88
297.18 K, Crystal 1	147.79
298.18 K, Crystal 1	147.74
299.18 K, Crystal 1	147.76
300.18 K, Crystal 1	147.88
301.18 K, Crystal 1	148.08
302.18 K, Crystal 1	148.34
303.18 K, Crystal 1	148.7
304.18 K, Crystal 1	149.02
305.18 K, Crystal 1	149.46
306.18 K, Crystal 1	149.88
307.18 K, Crystal 1	150.3
308.18 K, Crystal 1	150.74
309.18 K, Crystal 1	151.11
310.18 K, Crystal 1	151.52
311.18 K, Crystal 1	151.89
312.18 K, Crystal 1	152.28
313.18 K, Crystal 1	152.66
314.18 K, Crystal 1	153.07
315.18 K, Crystal 1	153.52
316.18 K, Crystal 1	153.88
317.18 K, Crystal 1	154.27
318.18 K, Crystal 1	154.64
319.18 K, Crystal 1	154.97
320.18 K, Crystal 1	155.32
321.18 K, Crystal 1	155.55
322.18 K, Crystal 1	155.81
323.18 K, Crystal 1	155.97
324.18 K, Crystal 1	156.09
325.18 K, Crystal 1	156.21
326.18 K, Crystal 1	156.25
327.18 K, Crystal 1	156.31
328.18 K, Crystal 1	156.31
328.78 K, Crystal 1	142.63
329.18 K, Crystal 1	156.34
329.78 K, Crystal 1	143.76
330.18 K, Crystal 1	156.4
330.78 K, Crystal 1	144.52
331.18 K, Crystal 1	156.44
331.78 K, Crystal 1	145.04
332.18 K, Crystal 1	156.55
332.78 K, Crystal 1	145.41
333.18 K, Crystal 1	156.64
333.78 K, Crystal 1	145.78
334.18 K, Crystal 1	156.71
334.78 K, Crystal 1	146.14
335.18 K, Crystal 1	156.85
335.78 K, Crystal 1	146.49
336.18 K, Crystal 1	156.94
336.78 K, Crystal 1	146.84
337.18 K, Crystal 1	157.08
337.78 K, Crystal 1	147.18
338.18 K, Crystal 1	157.1
338.78 K, Crystal 1	147.5
339.18 K, Crystal 1	157.13
339.78 K, Crystal 1	147.78
340.18 K, Crystal 1	157.13
340.78 K, Crystal 1	148.04
341.18 K, Crystal 1	157.22
341.78 K, Crystal 1	148.31
342.18 K, Crystal 1	157.26
342.78 K, Crystal 1	148.58
343.18 K, Crystal 1	157.38
343.78 K, Crystal 1	148.83
344.18 K, Crystal 1	157.49
344.78 K, Crystal 1	149.08
345.18 K, Crystal 1	157.55
345.78 K, Crystal 1	149.33
346.18 K, Crystal 1	157.7
346.78 K, Crystal 1	149.56
347.18 K, Crystal 1	157.84
347.78 K, Crystal 1	149.77
348.18 K, Crystal 1	158
348.78 K, Crystal 1	149.98
349.18 K, Crystal 1	158.16
349.78 K, Crystal 1	150.2
350.18 K, Crystal 1	158.3
350.78 K, Crystal 1	150.42
351.18 K, Crystal 1	158.39
351.78 K, Crystal 1	150.66
352.18 K, Crystal 1	158.48
352.78 K, Crystal 1	150.89
353.18 K, Crystal 1	158.58
353.78 K, Crystal 1	151.12
354.18 K, Crystal 1	158.8
354.78 K, Crystal 1	151.32
355.18 K, Crystal 1	158.94
355.78 K, Crystal 1	151.51
356.18 K, Crystal 1	159.08
356.78 K, Crystal 1	151.68
357.18 K, Crystal 1	159.2
357.78 K, Crystal 1	151.85
358.18 K, Crystal 1	159.38
358.78 K, Crystal 1	152.01
359.18 K, Crystal 1	159.61
359.78 K, Crystal 1	152.18
360.18 K, Crystal 1	159.81
360.78 K, Crystal 1	152.37
361.18 K, Crystal 1	160.09

From the NIST ThermoML archive (doi:10.1016/j.jct.2019.03.007)
